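A five-concentration, 48-hour dose response in 96-well plates underlies each endpoint, interpolated linearly between surrounding concentrations. Definition used: TGI = concentration required for complete inhibition of growth.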

Eleven compounds from PubChem BioAssay (NCI) can be followed below.

The test system of the first test is SK-MEL-28 melanoma. Put plainly: inhibition of tumour cell growth, NCI panel, 48 h.
In turn, `CN1CN(c2ccccc2)C2(CCN(CCCC3(c4cccs4)OCCO3)CC2)C1=O` returned a TGI of more than 100 µM.
On the same count and under the same terms, as for `Cc1cc(O)cc(O)c1N=Nc1ccc([N+](=O)[O-])cc1`, the figure is 61 µM; as for `CCOC(=O)c1c(SCCN2CCCC2)n(-c2ccccc2)c(=S)n(-c2ccccc2)c1=O`, 7.48 µM.
Turning to `Cc1nc2ccc([N+](=O)[O-])cc2c(=O)n1C(=S)Nc1cccc(Cl)c1`, the TGI was 40.6 µM.
The same measure, in the same setting: the figure for `Cc1cccc(C[C@@]2(SCc3ccccc3)C(C)(C)[C@@H]3CC[C@@]2(C)C3)n1` is 45.3 µM; for `O=C1/C(=C/c2ccc([N+](=O)[O-])cc2)CNC/C1=C\c1ccc([N+](=O)[O-])cc1` it is 5.49 µM.
Still for that read-out and setting: as for `C/C(=N/NC(=S)Nc1cccc(C)c1)c1ccccn1`, the figure is 7.61 µM.
Still for that read-out and setting: the figure for `CCOc1ccc(N=C/C=C(\Cl)c2ccc3ccccc3c2)cc1` is 31.4 µM; for `O=C(O)c1ccc(NS(=O)(=O)Cc2ccccc2)cc1` it is more than 100 µM.
Turning to `Cc1ccc(C(=O)Nc2ccc(CP(=O)(O)O)cc2)cc1NC(=O)c1cccc(NC(=O)Nc2cccc(C(=O)Nc3cc(C(=O)Nc4ccc(CP(=O)(O)O)cc4)ccc3C)c2)c1`, the TGI was more than 100 µM.
Take `CCOC(=O)c1cnc2[nH]ccn2c1=O`: the TGI was more than 10 µM.

In another test the test system is SK-OV-3 ovarian. Put plainly: inhibition of tumour cell growth, NCI panel, 48 h.
Take `CN1CN(c2ccccc2)C2(CCN(CCCC3(c4cccs4)OCCO3)CC2)C1=O`: the TGI is more than 100 µM.
With `Cc1cc(O)cc(O)c1N=Nc1ccc([N+](=O)[O-])cc1`, the TGI is more than 100 µM.
On the same count and under the same terms, the figure for `CCOC(=O)c1c(SCCN2CCCC2)n(-c2ccccc2)c(=S)n(-c2ccccc2)c1=O` is 34.5 µM.
Same read-out and setting: as for `Cc1nc2ccc([N+](=O)[O-])cc2c(=O)n1C(=S)Nc1cccc(Cl)c1`, the figure is 71.8 µM; as for `Cc1cccc(C[C@@]2(SCc3ccccc3)C(C)(C)[C@@H]3CC[C@@]2(C)C3)n1`, 51.4 µM.
In the case of `O=C1/C(=C/c2ccc([N+](=O)[O-])cc2)CNC/C1=C\c1ccc([N+](=O)[O-])cc1`, the TGI is more than 100 µM.
For the compound `C/C(=N/NC(=S)Nc1cccc(C)c1)c1ccccn1`, the TGI stood at 2.78 µM.
Same read-out and setting: as for `CCOc1ccc(N=C/C=C(\Cl)c2ccc3ccccc3c2)cc1`, the figure is 38.4 µM; as for `O=C(O)c1ccc(NS(=O)(=O)Cc2ccccc2)cc1`, more than 100 µM.
On the same count and under the same terms, the figure for `Cc1ccc(C(=O)Nc2ccc(CP(=O)(O)O)cc2)cc1NC(=O)c1cccc(NC(=O)Nc2cccc(C(=O)Nc3cc(C(=O)Nc4ccc(CP(=O)(O)O)cc4)ccc3C)c2)c1` is more than 100 µM.
On the same count and under the same terms, as for `CCOC(=O)c1cnc2[nH]ccn2c1=O`, the figure is more than 10 µM.

For another test, the system named is SN12C renal. Put plainly: inhibition of tumour cell growth, NCI panel, 48 h.
In turn, `CN1CN(c2ccccc2)C2(CCN(CCCC3(c4cccs4)OCCO3)CC2)C1=O` displayed a TGI of more than 100 µM.
The same measure, in the same setting: as for `Cc1cc(O)cc(O)c1N=Nc1ccc([N+](=O)[O-])cc1`, the figure is 54 µM.
`CCOC(=O)c1c(SCCN2CCCC2)n(-c2ccccc2)c(=S)n(-c2ccccc2)c1=O` registered a TGI of 3.18 µM.
The same measure, in the same setting: the figure for `Cc1nc2ccc([N+](=O)[O-])cc2c(=O)n1C(=S)Nc1cccc(Cl)c1` is 51.4 µM.
Still for that read-out and setting: as for `Cc1cccc(C[C@@]2(SCc3ccccc3)C(C)(C)[C@@H]3CC[C@@]2(C)C3)n1`, the figure is 31.5 µM; as for `O=C1/C(=C/c2ccc([N+](=O)[O-])cc2)CNC/C1=C\c1ccc([N+](=O)[O-])cc1`, 15.5 µM; as for `C/C(=N/NC(=S)Nc1cccc(C)c1)c1ccccn1`, 6.61 µM.
The same measure, in the same setting: the figure for `CCOc1ccc(N=C/C=C(\Cl)c2ccc3ccccc3c2)cc1` is 33.9 µM; for `O=C(O)c1ccc(NS(=O)(=O)Cc2ccccc2)cc1` it is more than 100 µM; for `Cc1ccc(C(=O)Nc2ccc(CP(=O)(O)O)cc2)cc1NC(=O)c1cccc(NC(=O)Nc2cccc(C(=O)Nc3cc(C(=O)Nc4ccc(CP(=O)(O)O)cc4)ccc3C)c2)c1` it is more than 100 µM.
The compound `CCOC(=O)c1cnc2[nH]ccn2c1=O` displayed a TGI of more than 10 µM.

The test system of the next test is SW-620 colon. The test can be described thus: inhibition of tumour cell growth, NCI panel, 48 h.
As for `CN1CN(c2ccccc2)C2(CCN(CCCC3(c4cccs4)OCCO3)CC2)C1=O`, the TGI is more than 100 µM.
On the same count and under the same terms, as for `Cc1cc(O)cc(O)c1N=Nc1ccc([N+](=O)[O-])cc1`, the figure is more than 100 µM; as for `CCOC(=O)c1c(SCCN2CCCC2)n(-c2ccccc2)c(=S)n(-c2ccccc2)c1=O`, 7.58 µM; as for `Cc1nc2ccc([N+](=O)[O-])cc2c(=O)n1C(=S)Nc1cccc(Cl)c1`, 53.3 µM.
Same read-out and setting: the figure for `Cc1cccc(C[C@@]2(SCc3ccccc3)C(C)(C)[C@@H]3CC[C@@]2(C)C3)n1` is 30.5 µM.
Same read-out and setting: as for `O=C1/C(=C/c2ccc([N+](=O)[O-])cc2)CNC/C1=C\c1ccc([N+](=O)[O-])cc1`, the figure is 1.78 µM; as for `C/C(=N/NC(=S)Nc1cccc(C)c1)c1ccccn1`, 5.45 µM; as for `CCOc1ccc(N=C/C=C(\Cl)c2ccc3ccccc3c2)cc1`, 36.5 µM.
In the case of `O=C(O)c1ccc(NS(=O)(=O)Cc2ccccc2)cc1`, the TGI was more than 100 µM.
On the same count and under the same terms, the figure for `Cc1ccc(C(=O)Nc2ccc(CP(=O)(O)O)cc2)cc1NC(=O)c1cccc(NC(=O)Nc2cccc(C(=O)Nc3cc(C(=O)Nc4ccc(CP(=O)(O)O)cc4)ccc3C)c2)c1` is more than 100 µM; for `CCOC(=O)c1cnc2[nH]ccn2c1=O` it is more than 10 µM.

A further test has as its system T-47D breast. Put plainly: inhibition of tumour cell growth, NCI panel, 48 h.
Compound `CN1CN(c2ccccc2)C2(CCN(CCCC3(c4cccs4)OCCO3)CC2)C1=O` had a TGI of more than 100 µM.
Still for that read-out and setting: the figure for `Cc1cc(O)cc(O)c1N=Nc1ccc([N+](=O)[O-])cc1` is more than 100 µM.
The compound `CCOC(=O)c1c(SCCN2CCCC2)n(-c2ccccc2)c(=S)n(-c2ccccc2)c1=O` showed a TGI of 9.41 µM.
On the same count and under the same terms, the figure for `Cc1nc2ccc([N+](=O)[O-])cc2c(=O)n1C(=S)Nc1cccc(Cl)c1` is 69.6 µM; for `Cc1cccc(C[C@@]2(SCc3ccccc3)C(C)(C)[C@@H]3CC[C@@]2(C)C3)n1` it is 24.9 µM; for `O=C1/C(=C/c2ccc([N+](=O)[O-])cc2)CNC/C1=C\c1ccc([N+](=O)[O-])cc1` it is more than 81.3 µM.
The same measure, in the same setting: as for `C/C(=N/NC(=S)Nc1cccc(C)c1)c1ccccn1`, the figure is 12.4 µM; as for `CCOc1ccc(N=C/C=C(\Cl)c2ccc3ccccc3c2)cc1`, 22.3 µM; as for `O=C(O)c1ccc(NS(=O)(=O)Cc2ccccc2)cc1`, more than 100 µM.
`Cc1ccc(C(=O)Nc2ccc(CP(=O)(O)O)cc2)cc1NC(=O)c1cccc(NC(=O)Nc2cccc(C(=O)Nc3cc(C(=O)Nc4ccc(CP(=O)(O)O)cc4)ccc3C)c2)c1`: the TGI is more than 100 µM.
Still for that read-out and setting: as for `CCOC(=O)c1cnc2[nH]ccn2c1=O`, the figure is more than 10 µM.
